Results published in patent publication US20230305023A1, “METHODS OF TREATMENT AND DIAGNOSTIC OF PATHOLOGICAL CONDITIONS ASSOCIATED WITH INTENSE STRESS” (INSERM (INSTITUT NATIONAL DE LA SANTÉ ET DE LA RECHERCHE …, priority 2020, published 2023).
“Also recorded” adds a separate entry of the source.

How the values were obtained:
[1] = test system: plasminogen activator inhibitor type 1 (PAI-1); settings: in vivo; cited from earlier work
[2] = target: PAI-1 (Homo sapiens, UniProt P05121); settings: dual mechanism of action; cited from earlier work
[3] = test system: C57BL/6J mice; assay: Adaptive vs maladaptive (PTSD-like) fear memory, fear conditioning procedure; type: in vivo
Description: Surgical procedure. Male C57BL/6J mice {n=20 in Experiment 1 (FIGS. 3a-d), n=75 in Experiment 2 (FIG. 4), n=40 in Experiment 3 (FIGS. 5a-d) and n=48 in Experiment 4 (FIGS. 5e-h)} 3-4 months old (Charles River Laboratory, France) were used. Mice were surgically-implanted bilaterally 1 mm above the dorsal hippocampus (A/P, -2 mm; M/L, ±1.3 mm; D/V, 0.9 mm; relative to dura and bregma) following to Franklin and Paxinos’s mouse brain atlas (25) then allowed to recover for 8 days before the behavioral experiments.
Adaptive vs maladaptive (PTSD-like) fear memory. […] In contrast, Cort-injected mice will display a maladaptive (PTSD-like) memory attested by an abnormally high fear response to the irrelevant tone (cue-based hypermnesia) together with a decreased conditioned fear to the conditioning context (contextual amnesia) (5). • Memory tests - After fear conditioning, each animal was returned to its home cage and 24 h later, all mice were submitted to two memory tests during which freezing behavior, defined as a lack of any movement except for respiratory-related movements (29), was measured and used as an index of conditioned fear.
Drug injections. Immediately after the acquisition of fear conditioning, mice were randomly divided into groups firstly according to first their systemic injection of Cort and secondly their specific intra-hippocampal infusion. […] Vehicle (NaCl 0.9%, n=8), 2. […] Vehicles (aCSF + NaCl 0.9%, n=15), 2. […] Vehicles (aCSF + NaCl 0.9%, n=8), 2. […] Vehicles (aCSF + DMSO, n=12), 2.
PAI-1 and BDNF were diluted in artificial CSF (aCSF) and Tiplaxtinin in 1.6 % dimethyl sulfoxide (DMSO) and then diluted in aCSF. Bilateral infusions of 0.3 µl/side were administered into the dorsal hippocampus immediately after acquisition of fear conditioning at a constant rate (0.1 µl/min).

[4] = in vivo; cited from earlier work
[5] = target: T1, rat PAI-1 (Rattus norvegicus, UniProt P20961); settings: cited from earlier work
T1 sequence (P20961 24-402): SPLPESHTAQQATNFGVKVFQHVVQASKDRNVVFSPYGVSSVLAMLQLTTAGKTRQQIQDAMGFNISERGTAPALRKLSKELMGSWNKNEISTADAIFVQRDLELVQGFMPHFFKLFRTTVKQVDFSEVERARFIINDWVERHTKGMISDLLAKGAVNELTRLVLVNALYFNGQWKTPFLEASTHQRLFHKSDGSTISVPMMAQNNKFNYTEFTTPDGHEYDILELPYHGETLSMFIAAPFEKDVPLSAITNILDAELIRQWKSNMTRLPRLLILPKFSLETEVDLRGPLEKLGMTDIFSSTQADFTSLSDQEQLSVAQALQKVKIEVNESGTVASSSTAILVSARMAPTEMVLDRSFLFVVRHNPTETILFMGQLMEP

[6] = test system: rat; settings: cited from earlier work
[7] = target: T2, mouse PAI-1 (Mus musculus, UniProt P22777); settings: cited from earlier work
T2 sequence (P22777 23-402): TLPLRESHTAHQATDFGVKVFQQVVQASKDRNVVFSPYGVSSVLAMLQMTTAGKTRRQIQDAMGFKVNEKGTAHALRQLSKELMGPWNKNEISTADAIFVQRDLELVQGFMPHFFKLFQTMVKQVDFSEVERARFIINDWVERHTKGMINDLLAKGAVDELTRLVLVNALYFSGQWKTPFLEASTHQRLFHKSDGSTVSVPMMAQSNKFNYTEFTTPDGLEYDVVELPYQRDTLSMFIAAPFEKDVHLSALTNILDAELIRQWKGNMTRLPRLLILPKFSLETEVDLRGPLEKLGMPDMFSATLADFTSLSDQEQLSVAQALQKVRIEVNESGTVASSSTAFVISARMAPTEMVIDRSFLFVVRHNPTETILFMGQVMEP

[8] = test system: rat; settings: in vivo; cited from earlier work
[9] = cited from earlier work
[10] = test system: TGF-B1-induced lung fibrosis; settings: in vivo; cited from earlier work
[11] = test system: rats; settings: cited from earlier work
[12] = test system: nonhuman primates; settings: cited from earlier work
[13] = test system: dorsal hippocampal slices; assay: Protein expression in dorsal hippocampal slices incubated with corticosterone (western blot); type: cell-based, Sprague-Dawley rats
Method: Briefly, adult male Sprague-Dawley rats (2-3 months old n=18, Charles River Laboratory, France) were used. Rats were then anesthetized with isoflurane and transcardially perfused with nearly frozen modified artificial cerebrospinal fluid (CSF) with 3 mM kynurenic acid. The modified CSF for perfusion contained: (in mM) 87 NaCl, 75 Sucrose, 25 Glucose, 5 KCl, 21 MgCl2, 0.5 CaCl2 and 1.25 NaH2PO4. After perfusion, the brains were quickly removed and sliced (300 µm) in the coronal plane using a vibratome (Campden Instruments, UK). Immediately after cutting, slices were stored for 40 min at 32° C. in CSF ((in mM): 130 NaCl, 11 Glucose, 2.5 KCl, 2.4 MgCl2, 1.2 CaCl2, 23 NaHCO3, 1.2 NaH2PO4), equilibrated with 95% O2 / 5% CO2 then stored at room temperature for the rest of the experiment. […] Dorsal hippocampi were isolated, and proteins were extracted as previously described (14;16).
Protein extraction from brain tissues and immunoblotting analysis. A detailed description of protein extraction and immunoblotting analysis has been reported previously (14-16;20;21). Briefly, protein sample extracts from PC12 cells and mouse and rat hippocampi were performed in RIPA buffer containing protease and phosphatase inhibitors (#P8340 and #P0044, Sigma, USA) before being subjected to immunoblotting experiments. […] Rabbit polyclonal anti-PAI-1 antibodies were from Lifespan Biosciences (LSBio#C81062, 1/1000, WA, USA) and Epitomics (#3917-1, 1/3000, CA, USA), anti-tPA (#T5600-05G; 1/5000) was from US Biologicals (MA, USA), anti-Erk1/2^MAPK (#06-182; 1/50000) was from Millipore (MA, USA), anti-Phospho-Erk1/2^MAPK (#9101S; 1/1000) was from CST (MA, USA). Rabbit monoclonal antibodies anti-Phospho-Erk1/2^MAPK (#4370; 1/5000) was from CST (MA, USA), anti-Phospho-TrkB (#2149-1; 1/5000) was from Epitomics (CA, USA), anti-TrkB (#610101; 1/2000) was from BD Biosciences (NJ, USA). Mouse monoclonal anti-Neuronal Class III β-Tubulin (TUJ1) (#MMS-435P; 1/20000) was from Eurogentec (Belgium), anti-α-tubulin (#N356, 1/50000) was from Amersham Life Sciences (Del, USA). CST provided secondary antibodies: anti-rabbit IgG, HRP-linked antibody (#7074, 1/5000) and anti-mouse IgG, HRP-linked antibody (#7076, 1/20000). In all experiments, βIII-tubulin or α-tubulin measures were used as a loading control. X-Ray films (Kodak, USA) were quantified by densitometry (optical density; OD) using a GS-800 scanner coupled with Quantity One software (Bio-Rad, CA, USA).

[14] = test system: PC12 cells; assay: PAI-1 expression in PC12 cells treated with corticosterone (qPCR, western blot); type: cell-based, rat; settings: Cort 100 and 1000 nM, 3 h
Method: Chemicals. […] Millipore (USA) provided the recombinant human BDNF (CAS Nb 218441-99-7, #GF029, 100 ng/side) and tPA inhibitor; stable recombinant mutant of human Type 1 Plasminogen Activator Inhibitor (PAI-1; CAS Nb: 140208-23-7, #528208, ranging from 30 to 240 ng/side) (16;18). The small-molecule inhibitor of PAI-1 activity Tiplaxtinin (PAI-039; CAS Nb: 393105-53-8, #1383, 5 ng/side) was provided by Axon MEDCHEM (The Netherlands).
Cell culture. PC12 cell line (ATCC CRL-1721) derived from a transplantable rat pheochromocytoma was used (14;16). […]
Quantitative PCR analysis. […] RNA was processed and analyzed using an adapted version of published methods (23). cDNA was synthesized from 2 µg of total RNA using RevertAid Premium Reverse Transcriptase (Fermentas, Thermo Fisher Scientific, USA) and primed with oligo-dT primers (Fermentas, Thermo Fisher Scientific, USA) and random primers (Fermentas, Thermo Fisher Scientific, USA). qPCR was perfomed using a LightCycler® 480 Real-Time PCR System (Roche, Meylan, France). qPCR reactions were done in duplicate for each sample, using transcript-specific primers, cDNA (4 ng) and LightCycler 480 SYBR Green I Master (Roche) in a final volume of 10 µl. The PCR data were exported and analyzed in a computer-based tool (Gene Expression Analysis Software Environment) developed at the Neurocentre Magendie (France). […]

Sequence of PAI-1 (P05121 24-402, species assumed): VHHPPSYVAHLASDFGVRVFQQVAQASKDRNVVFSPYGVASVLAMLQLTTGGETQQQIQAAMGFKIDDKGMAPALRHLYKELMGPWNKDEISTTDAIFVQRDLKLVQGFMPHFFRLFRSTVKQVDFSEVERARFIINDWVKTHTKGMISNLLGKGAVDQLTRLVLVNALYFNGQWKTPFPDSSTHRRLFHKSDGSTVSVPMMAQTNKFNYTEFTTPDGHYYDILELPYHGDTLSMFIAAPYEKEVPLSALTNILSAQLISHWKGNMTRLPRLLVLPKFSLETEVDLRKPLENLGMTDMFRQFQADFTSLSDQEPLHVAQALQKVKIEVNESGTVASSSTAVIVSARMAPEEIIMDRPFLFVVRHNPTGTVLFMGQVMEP

Question: With Defibrotide as the molecule, how does the “circulating levels of plasminogen activator inhibitor type 1 (PAI-1)” value [1] read?
Answer: reduces

Question: For `CCCCCc1c(-c2ccc3cc(OCc4nnn[nH]4)ccc3c2)n(Cc2ccccc2)c2ccccc12` [PAI-749, 1-benzyl-3-pentyl-2[-(1H-tetrazol-5-ylmethoxy)naphthalene-2-yl]-1Hindole], which PAI-1 activity [2] is on record?
Answer: neutralize PAI-1 activity

Question: Which “appearance of PTSD-like memory in Cort-treated animals” value ([3]; Tiplaxtinin 5 ng/side intra-hippocampal immediately after conditioning, Cort 2 mg/kg i.p., freezing tested 24 h later) does the source give for `O=C(O)C(=O)c1cn(Cc2ccccc2)c2ccc(-c3ccc(OC(F)(F)F)cc3)cc12` [Tiplaxtinin, 1H-indole-3-acetic acid, a-oxo-1-(phenylmethyl)-5-(4-trifluoromethoxyphenyl)] here?
Answer: prevented the appearance of PTSD-like memory; also recorded: normalizes traumatic memory

Question: Which “benefit in PTSD over placebo” value [4] does the source give for `COc1ccc(C(CN(C)C)C2(O)CCCCC2)cc1` (stereo not drawn) [venlafaxine] here?
Answer: small to modest benefit

Question: What does the source list for `O=C1S/C(=C\c2cc(O)c(O)c(O)c2)C(=O)N1Cc1ccc(Cl)c(Cl)c1` [IMD-1622, 3-(3,4-dichlorobenzyl)-5-(3,4,5-trihydroxy-benzylidene)-thiazolidine-2,4-dione]?
Answer: activity of rat PAI-1 [5]: inhibit; thrombus weight ([6]; compared to control): decreased; intimal thickening ([6]; rat, in vivo): suppressed; activity of mouse PAI-1 [7]: inhibit; rat autoimmune myocarditis [8]: suppresses

Question: Which oral pharmacokinetic profile [9] does the source give for `O=C(COCC(=O)N1CCN(C(c2ccccc2)c2ccccc2)CC1)Nc1ccc(Cl)cc1C(=O)[O-].[Na+]` [TM5275] here?
Answer: improved oral pharmacokinetic properties

Question: And the TGF-B1-induced lung fibrosis [10]?
Answer: blocks

Question: And the antithrombotic ability [11]?
Answer: effective antithrombotic ability

Question: And the antithrombotic ability [12]?
Answer: effective antithrombotic ability

Question: Which “benefit in PTSD over placebo” value [4] does the source give for `Fc1ccc([C@@H]2CCNC[C@H]2COc2ccc3c(c2)OCO3)cc1` [paroxetine] here?
Answer: small to modest benefit

Question: For `C[C@]12C[C@H](O)[C@H]3[C@@H](CCC4=CC(=O)CC[C@@]43C)[C@@H]1CC[C@@H]2C(=O)CO` [Cort, corticosterone], which “tPA, P-TrkB and P-Erk1/2MAPK proteins” value ([13]; Cort 10 nM, 1 h after treatment) is on record?
Answer: increase

Question: And the PAI-1 protein ([13]; Cort 10 nM, 3 h after treatment)?
Answer: increase

Question: What about the PAI-1 protein ([13]; Cort 1000 nM, 1 h after treatment) of the same molecule?
Answer: early increase

Question: What about the “tPA, P-TrkB and P-Erk1/2MAPK proteins” value ([13]; Cort 1000 nM, after 3 h treatment) of the same molecule?
Answer: suppression of the increase

Question: And the PTSD-like memory impairments ([3]; Cort 2 mg/kg i.p. immediately after conditioning)?
Answer: PTSD-like memory impairments appeared

Question: And the “expression of PAI-1 mRNA” value ([14]; qPCR)?
Answer: strongly increased

Question: What about the “expression of PAI-1 protein” value ([14]; western blot) of the same molecule?
Answer: strongly increased

Question: Which oral pharmacokinetic profile [9] does the source give for `O=C(CCCCC(=O)Nc1scc(-c2cccs2)c1C(=O)O)Nc1scc(-c2cccs2)c1C(=O)O` [TM5007] here?
Answer: not ideal

Question: For `CNCCC(Oc1ccc(C(F)(F)F)cc1)c1ccccc1` (stereo not drawn) [fluoxetine], which “benefit in PTSD over placebo” value [4] is on record?
Answer: small to modest benefit

B1: mature BDNF: recombinant human BDNF, CAS 218441-99-7 (protein, UniProt P23560 19-247, looked up)
Neurotrophic factor BDNF …: APMKEANIRGQGGLAYPGVRTHGTLESVNGPKAGSRGLTSLADTFEHVIEELLDEDQKVRPNEENNKDADLYTSRVMLSSQVPLEPPLLFLLEEYKNYLDAANMSMRVRRHSDPARRGELSVCDSISEWVTAADKKTAVDMSGGTVTVLEKVPVSKGQLKQYFYETKCNPMGYTKEGCRGIDKRHWNSQCRTTQSYVRALTMDSKKRIGWRFIRIDTSCVCTLTIKRGR
Question: With B1 as the molecule, how does the “reversal of the effect of PAI-1 on fear memory” value ([3]; mature BDNF 100 ng/side concomitant with PAI-1 240 ng/side, intra-hippocampal) read?
Answer: completely reversed
